For one experiment, the target named is LXR α LBD protein (Homo sapiens (Human), UniProt Q13133). Kind of experiment: LXR α radioligand binding assay (SPA, competition with [3H]TO901317). Conditions: read-out: LXRα Binding Ki.
The target of experiment [1] is Gal4 DNA binding domain fused to the LBD of LXRα in HEK293 cells (Homo sapiens (Human), UniProt Q13133). Kind of experiment: LXR luciferase transcriptional reporter gene assay, agonist mode, LXRα. The format is cell-based. The note with it: for pEC50: read-out: Cell LXRα EC50. (Reporter assays use an easily measured gene product as a stand-in for the process of interest.)

For experiment [2], the target named is Gal4 DNA binding domain fused to the LBD of LXRβ in HEK293 cells (Homo sapiens (Human), UniProt P55055). Kind of experiment: cell-based.
Where [3] appears, read: Biological Test Example 2, agonist mode.
Where [4] appears, read: Biological Test Example 2, agonist mode, read-out: Cell LXRβ EC50.

These results are taken from patent US10144715B2, “Piperazine derivatives as liver X receptor modulators” (priority 2014, dated 2018).

pEC50, pKi: −log10 of the molar value. Where two headings read alike, the source gives them in different places.

Chain of Gal4 DNA binding domain fused to the LBD of LXRβ in HEK293 cells (P55055 222-460 limits assumed): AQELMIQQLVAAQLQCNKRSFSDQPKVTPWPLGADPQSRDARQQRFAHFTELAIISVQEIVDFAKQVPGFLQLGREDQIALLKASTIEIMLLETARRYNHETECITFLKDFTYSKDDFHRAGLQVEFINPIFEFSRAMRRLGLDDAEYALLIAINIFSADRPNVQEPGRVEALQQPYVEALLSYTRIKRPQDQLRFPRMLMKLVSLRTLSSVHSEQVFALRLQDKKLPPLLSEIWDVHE
Chain of LXR α LBD protein (Q13133 209-447): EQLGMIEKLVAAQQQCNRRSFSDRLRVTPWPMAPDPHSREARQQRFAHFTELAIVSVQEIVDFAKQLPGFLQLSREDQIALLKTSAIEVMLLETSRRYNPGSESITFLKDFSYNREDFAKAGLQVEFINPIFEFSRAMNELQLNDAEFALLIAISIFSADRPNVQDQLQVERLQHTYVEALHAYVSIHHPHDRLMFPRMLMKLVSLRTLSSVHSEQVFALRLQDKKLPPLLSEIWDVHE
Chain of Gal4 DNA binding domain fused to the LBD of LXRα in HEK293 cells (Q13133 209-447): as above

With `CC(C)[C@@H]1CN(c2cccc(S(C)(=O)=O)c2)CCN1C[C@H]1CC[C@@H](C(F)(F)F)CC1` (single isomer, unassigned) [48-9], on LXR α LBD protein, the negative logarithm of the Ki (pKi) – broadly, the Ki on a negative log10 scale, so that one unit is a factor of ten – is 6.31. In addition, in experiment [1], the “Cell LXRα efficacy” value was 3201 (94) % and the pEC50 (as a rule, the negative decadic logarithm of the EC50, by convention in mol/L) was 5.49.

For `CC(C)[C@@H]1CN(c2cccc(S(C)(=O)=O)c2)CCN1C[C@H]1CC[C@H](C(F)(F)F)CC1` (single isomer, unassigned) [48-10], at LXR α LBD protein, the pKi was 5.77. In experiment [1], the “Cell LXRα efficacy” value was 9657 (80) % and the negative-log EC50 (pEC50) is 5.02.

With `CC(C)[C@H]1CN(c2cccc(S(C)(=O)=O)c2)CCN1C[C@H]1CC[C@H](C(F)(F)F)CC1` (single isomer, unassigned) [48-12], the pKi on LXR α LBD protein is 6.61. Besides, in experiment [1], the “Cell LXRα efficacy” value is 363 (66) % and the pEC50 is 6.44.

On to `CC1(C)CCC(CN2CCN(c3ccc(CO)c(S(C)(=O)=O)c3)C[C@@H]2c2ccccc2)CC1` (single isomer, unassigned) [48-26], for which, at LXR α LBD protein, the negative-log Ki (pKi) was 7.41. The “Cell LXRα efficacy” value in experiment [1] is given as 364 (73) %. Besides, the pEC50 in experiment [1] (agonist mode) is 6.44.

As for `CC1(C)CCC(CN2CCN(c3ccc(CO)c(S(C)(=O)=O)c3)C[C@H]2c2ccccc2)CC1` (single isomer, unassigned) [48-27], the pKi at LXR α LBD protein was 5.54. The “Cell LXRα efficacy” value in experiment [1] is listed as 18123 (60) %. Moreover, the pEC50 in experiment [1] (agonist mode) is 4.74.

`CS(=O)(=O)c1cccc(N2CCN(C[C@H]3CC[C@H](C(F)(F)F)CC3)[C@H](c3ccccc3Cl)C2)c1` (single isomer, unassigned) [48-47]: the pEC50 is below 4.70 in experiment [1] and 5.86 in experiment [2] (setting [4]). Besides, in experiment [2] (setting [3]), the “Cell LXRβ efficacy” value amounted to 26%.

In the case of `CC(C)[C@H]1CN(c2ccc(CO)c(S(C)(=O)=O)c2)CCN1C[C@H]1CCN(CC(F)(F)F)C1` (single isomer, unassigned) [48-58], the pKi on LXR α LBD protein (Biological Test Example 1) is below 5.48. Moreover, the “Cell LXRα efficacy” value in experiment [1] is recorded as 3252 (56) %. In addition, the negative logarithm of the EC50 (pEC50) in experiment [1] (setting [3]) is 5.49.

For the compound `CC(C)[C@H]1CN(c2ccc(CO)c(S(C)(=O)=O)c2)CCN1C[C@@H]1CCN(CC(F)(F)F)C1` (single isomer, unassigned) [48-59], on LXR α LBD protein (Biological Test Example 1), the negative logarithm of the Ki (pKi) is 5.50. For the same compound, the “Cell LXRα efficacy” value in experiment [1] was 1189 (54) %. In addition, in experiment [1] (setting [3]), the negative logarithm of the EC50 (pEC50) is 5.92.

`CS(=O)(=O)c1cccc(N2CCN(C[C@H]3C[C@@H]4[C@H](C3)C4(F)F)[C@H](c3ccccc3)C2)c1` (single isomer, unassigned) [48-65]: the pEC50 in experiment [1] is below 4.70; in experiment [2] (setting [4]) it was 5.15. Also, the “Cell LXRβ efficacy” value in experiment [2] (setting [3]) amounted to 48%.

In the case of `CC(C)[C@H]1CN(c2cccc(S(C)(=O)=O)c2)CCN1C[C@H]1CC[C@@H](C(F)(F)F)CC1` (single isomer, unassigned) [Cpd No 48-11], the “Cell LXRα efficacy” value in experiment [1] is reported as 53 (101) %. The negative logarithm of the EC50 (pEC50) in experiment [1] (agonist mode) was 7.28.

`CCOC(=O)c1csc(-c2ccc(N3CCN(C(=O)OC(C)(C)C)[C@H](C(C)C)C3)cc2S(C)(=O)=O)n1` [2-4, ethyl (R)-2-(4-(4-(tert-butoxycarbonyl)-3-isopropylpiperazin-1-yl)-2-(methylsulfonyl)phenyl)thiazole-4-carboxylate]: the pKi on LXR α LBD protein is 5.97. Besides, the “Cell LXRα efficacy” value in experiment [1] is on record as 4227 (62) %. Further, the pEC50 in experiment [1] (agonist mode) is 5.37.

Turning to `CC(C)[C@@H]1CN(c2ccc(CO)c(S(C)(=O)=O)c2)CCN1c1ccnc(C(N)=O)c1` [4-6, (R)-4-(4-(4-(hydroxymethyl)-3-(methylsulfonyl)phenyl)-2-isopropylpiperazin-1-yl)picolinamide], at LXR α LBD protein, the negative logarithm of the Ki (pKi) was below 5.48. In addition, the “Cell LXRα efficacy” value in experiment [1] was 9385 (44) %. In addition, the negative-log EC50 (pEC50) in experiment [1] (agonist mode) was 5.03.

In experiment [2], `CC(C)[C@@H]1CN(c2ccc(F)c(S(C)(=O)=O)c2)CCN1C(=O)OCC(F)(F)F` [5-4, 2,2,2-trifluoroethyl (R)-4-(4-fluoro-3-(methylsulfonyl)phenyl)-2-isopropylpiperazine-1-carboxylate] showed a negative-log EC50 (pEC50) of 6.14.

As for `CC(C)[C@@H]1CN(c2cccc(S(C)(=O)=O)c2)CCN1c1ncc(Br)cn1` [7-16, (R)-5-bromo-2-(2-isopropyl-4-(3-(methylsulfonyl)phenyl)piperazin-1-yl)pyrimidine], in experiment [1], the “Cell LXRα efficacy” value was 1282 (85) %. Further, the pEC50 in experiment [1] (agonist mode) was 5.89.

Turning to `CC(F)(F)[C@H]1CN(c2cccc(S(C)(=O)=O)c2)CCN1c1nccc(C(F)(F)F)n1` [7-25, (R)-2-(2-(1,1-difluoroethyl)-4-(3-(methylsulfonyl)phenyl)piperazin-1-yl)-4-(trifluoromethyl)pyrimidine], the pKi at LXR α LBD protein was 5.32. The pEC50 in experiment [1] (agonist mode) was below 4.70.

As for `CC(C)[C@@H]1CN(c2ccc(F)c(S(C)(=O)=O)c2)CCN1c1ccc(F)c(C(F)(F)F)n1` [7-33, (R)-4-(4-fluoro-3-(methylsulfonyl)phenyl)-1-(5-fluoro-6-(trifluoromethyl)pyridin-2-yl)-2-isopropylpiperazine], in experiment [1], the “Cell LXRα efficacy” value is 307 (115) %. Moreover, the pEC50 in experiment [1] (agonist mode) is 6.51.

Take `COC(=O)c1cnc(N2CCN(c3ccc(F)c(S(=O)(=O)N(C)Cc4ccc(OC)cc4)c3)C[C@H]2C(C)C)nc1C(F)(F)F` [9-3, methyl (R)-2-(4-(4-fluoro-3-(N-(4-methoxybenzyl)-N-methylsulfamoyl)phenyl)-2-isopropylpiperazin-1-yl)-4-(trifluoromethyl)pyrimidine-5-carboxylate]: the “Cell LXRα efficacy” value in experiment [1] is reported as 951 (50) %. In experiment [1] (agonist mode), the pEC50 was 6.02.

As to `Cc1nc(N2CCN(c3ccc(F)c(S(C)(=O)=O)c3)C[C@@H]2C(C)(C)O)ccc1C(F)(F)F` [10-9, (R)-2-(4-(4-fluoro-3-(methylsulfonyl)phenyl)-1-(6-methyl-5-(trifluoromethyl)pyridin-2-yl)piperazin-2-yl)propan-2-ol], in experiment [1] (agonist mode), the negative-log EC50 (pEC50) is below 4.70.

For `Cc1nc(N2CCN(c3ccc(F)c(S(C)(=O)=O)c3)C[C@H]2C(C)(C)O)ccc1C(F)(F)F` [10-10, (S)-2-(4-(4-fluoro-3-(methylsulfonyl)phenyl)-1-(6-methyl-5-(trifluoromethyl)pyridin-2-yl)piperazin-2-yl)propan-2-ol], the “Cell LXRα efficacy” value in experiment [1] is 13605 (107) %. In experiment [1] (agonist mode), the pEC50 is 4.87.

With `CC(C)[C@@H]1CN(c2ccc(F)c(S(C)(=O)=O)c2)CCN1c1ncc(CN)c(C(F)(F)F)n1` [15-2, (R)-(2-(4-(4-fluoro-3-(methylsulfonyl)phenyl)-2-isopropylpiperazin-1-yl)-4-(trifluoromethyl)pyrimidin-5-yl)methanamine], the negative logarithm of the EC50 (pEC50) in experiment [1] (agonist mode) was below 4.70; in experiment [2], 5.52. Besides, the “Cell LXRβ efficacy” value in experiment [2] is given as 3001 (13) %.

In the case of `CS(=O)(=O)c1cc(N2CCN(c3ncc(C(=O)O)c(C(F)(F)F)n3)[C@H](c3ccc(F)cc3)C2)ccc1F` [16-2, (R)-2-(4-(4-fluoro-3-(methylsulfonyl)phenyl)-2-(4-fluorophenyl)piperazin-1-yl)-4-(trifluoromethyl)pyrimidine-5-carboxylic acid], the pEC50 in experiment [1] (agonist mode) and in experiment [2] was below 4.70 each time.

With `COC(=O)c1ccc(N2CCN(Cc3ccc(C(F)(F)F)c(Cl)c3)C(c3ccccc3)C2)cc1S(C)(=O)=O` (stereo not drawn) [46-38, methyl 4-(4-(3-chloro-4-(trifluoromethyl)benzyl)-3-phenylpiperazin-1-yl)-2-(methylsulfonyl)benzoate], the “Cell LXRα efficacy” value in experiment [1] is listed as 1088 (25) %. Further, the negative-log EC50 (pEC50) in experiment [1] (agonist mode) was 5.96.

For `CS(=O)(=O)c1cccc(N2CCN(Cc3ccc(C(F)(F)F)nc3)C(c3ccc(Br)cc3)C2)c1` (stereo not drawn) [46-61, 2-(4-bromophenyl)-4-(3-(methylsulfonyl)phenyl)-1-((6-(trifluoromethyl)pyridin-3-yl)methyl)piperazine], in experiment [1] (agonist mode), the negative logarithm of the EC50 (pEC50) is below 4.70.

Turning to `CS(=O)(=O)c1cccc(N2CCN(C[C@H]3CCC[C@@H](C(F)(F)F)C3)[C@@H](c3ccc(F)cc3)C2)c1` [48-42, (S)-2-(4-fluorophenyl)-4-(3-(methylsulfonyl)phenyl)-1-(((1S,3R)-3-(trifluoromethyl)cyclohexyl)methyl)piperazine], the pEC50 in experiment [1] (agonist mode) was below 4.70.

On to `CS(=O)(=O)c1cccc(N2CCN(C[C@@H]3C[C@@H]4[C@H](C3)C4(F)F)[C@H](c3ccccc3)C2)c1` [48-67, (R)-1-(((1R,3s,5S)-6,6-difluorobicyclo[3.1.0]hexan-3-yl)methyl)-4-(3-(methylsulfonyl)phenyl)-2-phenylpiperazine], for which the “Cell LXRα efficacy” value in experiment [1] is recorded as 7547 (30) %. The results for the negative-log EC50 (pEC50) in experiment [1] and in experiment [2] (setting [4]) were 5.12 and 5.62, respectively. Further, in experiment [2] (setting [3]), the “Cell LXRβ efficacy” value is 47%.

As for `CC(C)[C@H]1CN(c2cccc(S(C)(=O)=O)c2)CCN1CC1CCC(C(F)(F)F)NC1` (stereo partly drawn) [48-68, (2S)-2-isopropyl-4-(3-(methylsulfonyl)phenyl)-1-((6-(trifluoromethyl)piperidin-3-yl)methyl)piperazine], the “Cell LXRα efficacy” value in experiment [1] is reported as 1224 (75) %. The pEC50 in experiment [1] (setting [3]) was 5.91.

The compound `CC(C)[C@@H]1CN(c2ccc(F)c(S(C)(=O)=O)c2)CCN1C(=O)OC1CC(F)(F)C1(F)F` (stereo partly drawn) [Cpd No 5-1, 2,2,3,3-tetrafluorocyclobutyl (2R)-4-(4-fluoro-3-(methylsulfonyl)phenyl)-2-isopropylpiperazine-1-carboxylate] had a negative logarithm of the EC50 (pEC50) in experiment [2] of 6.57.

As for `CC(C)[C@@H]1CN(c2ccc(F)c(S(C)(=O)=O)c2)CCN1c1ncc(Cl)c(C2CC2)n1` [Cpd No 22-1, (R)-5-chloro-4-cyclopropyl-2-(4-(4-fluoro-3-(methylsulfonyl)phenyl)-2-isopropylpiperazin-1-yl)pyrimidine], in experiment [1], the “Cell LXRα efficacy” value is 1482 (31) % and the pEC50 was 5.83. For the same compound, in experiment [2], the “Cell LXRβ efficacy” value is 139 (14) % and the negative-log EC50 (pEC50) was 6.86.

Turning to `Cc1cnc(N2CCN(c3ccc(F)c(S(C)(=O)=O)c3)C[C@H]2C(C)C)nc1C(F)(F)F` [Cpd No 37-3, (R)-2-(4-(4-fluoro-3-(methylsulfonyl)phenyl)-2-isopropylpiperazin-1-yl)-5-methyl-4-(trifluoromethyl)pyrimidine], in experiment [2], the “Cell LXRβ efficacy” value is 11 (96) % and the pEC50 is 7.96.
